In patent US20070014748A1, “Urea compounds that promote desquamation” (L'OREAL, priority 2005, published 2007):

Experiments:
[1] = tested on: keratins and proteins of the SC; assay: "Keratolytic" potential: solubilization of keratins and proteins of the stratum corneum (electrophoresis gel); details: 2M in water +2% CHAPS; room temperature; 12.5% acrylamide gel, silver nitrate staining
Protocol: (§1) Three properties were therefore studied: • The prodesquamating power, by the test of degradation of corneodesmosin in a controlled environment chamber with formulated products containing 5% active agent. […] P According to one of the aspects of the invention, the said compound of formula (I) has a corneodesmosin degrading effect which it stimulates.
Urea is known for its denaturing activity on keratolytic proteins.
30 mg of acetone powders of stratum corneum of the bottom of the legs of volunteers are prepared and brought into contact with 3 ml of water +2% CHAPS (zwitterionic detergent) for 10 min at room temperature. The mixture is then ground in a potter device and centrifuged for 10 min at 15 000 g. The supernatant is removed. This method makes it possible to remove the very soluble keratins and proteins which would interfere with the interpretation of the results. The pellet is taken up in 300 μl of water+CHAPS and 20 μl are distributed into 10 Eppendorf tubes.
Each molecule to be studied is prepared at 2M in water +2% CHAPS.
200 μl of solution are mixed with 20 μl of extract of acetone powders. The assays are carried out in duplicate. A control with no reagent is performed in parallel. The reaction mixtures are incubated for 10 min at room temperature, they are ground in a potter device and then incubated for 50 min at room temperature. They are centrifuged for 10 min at 15 000 g. […]

[2] = tested on: corneodesmosin; assay: Degradation of corneodesmosin in a controlled environment chamber (varnished strippings, immunoblot); type: biochemical; details: for percentages of residual corneodesmosin relative to the control: 5% active agent in base Arlacel/Myrj, 37° C., 70% relative humidity, 5 days, mean of 2 experiments, the lower the percentage, the higher the degradation
Text: as §1
The molecules are formulated in a neutral base Arlacel/Myrj. The products are in contact with varnished strippings under defined temperature, humidity and incubation time conditions. The corneodesmosin is assayed by immunodetection after incubation. It is studied on an immunoblot after electrophoretic separation and transfer onto a membrane. After specific labelling with the antibody G3619, it is visualized by chemiluminescence.
The Hydrovance® product, which is a mixture comprising N-(2-hydroxyethyl)urea marketed by the company National Starch, is compared with urea and with a control.
Rectangles of 3×3.5 cm^2 are cut out in varnished strippings made on the bottom of dry skin legs. They are treated with 42 mg of product (4 mg/cm^2) each. Controls and assays are carried out in parallel. The assays are incubated at 37° C. and 70% relative humidity for 5 days. The controls are kept for 5 days at −20° C. For each of the samples, acetone powders are made and weighed. The proteins are extracted with 100 μl of complete Laemmli buffer. They are assayed according to the Bradford method. The protein level of each sample is adjusted and will allow direct comparison of the various samples.
The proteins are separated by SDS-Page electrophoresis on 12% acrylamide gel. After transferring the proteins onto a PVDF membrane, the immunodetection is carried out with the anti-corneodesmosin antibody G3619 (Guy Serre) at 1/12 500 according to a conventional Western-blot technique. The visualization is performed by chemiluminescence. The bands detected by fluorSmax (Biorad) are quantified with the software quantity-one. […]
The results are expressed as percentages of residual corneodesmosin relative to the control −80° C. […]

[3] = tested on: acid proteases of the SC (stratum corneum); assay: Activating potential on acid proteases of the stratum corneum (Enzchek Bodipyfl-casein fluorimetric assay); type: biochemical; details: for acid protease activity compared with the control / duration of the activating effect on acid proteases: 1 and 2 M; for acid protease activity compared with the control: 0.1M acetic buffer pH 5.0, SC enzymatic extract; for duration of the activating effect on acid proteases: readings up to 24 h
Protocol: as §1
The property of activating certain acid proteases of the SC (stratum corneum) is evaluated. The measurement of this activity is carried out by fluorimetric assay with the aid of the Enzchek kit (Molecular Probes). This protocol uses a Bodipyfl-casein substrate which, when hydrolysed, releases fluorescence. The fluorescence released is directly proportional to the protease activity. It is read directly on a 96-well plate in a spectrofluorimeter at 750V at an excitation of 485 nm and an emission of 535 nm.
The results obtained with N-(2-hydroxyethyl)urea (compound according to the invention) are compared with those for urea.
The molecules are prepared at 0, 1, 2 and 4 M in 0.1M acetic buffer; pH 5.0. An enzymatic extract is prepared from acetone powders. 2 ml of PBS buffer +0.1% Triton X100 are brought into contact for 1 h in crushed ice with 200 mg of stratum corneum acetone powders. The mixture is then ground in a potter device and then centrifuged for 10 min at 15 000 g at 4° C. The supernatant is collected. The Enzchek substrate diluted 1/200 is incorporated into each solution containing the molecules. The assays are repeated three times.
The reaction mixture is prepared directly in a white plate. 10 μl of enzymatic extract are added to 200 μl of solution containing the substrate at 0, 1, 2 or 4M. The readings are carried out at t0, 1 2 h, t 16 h and t 24 h.

SMILES	solubilization of SC proteins, gel band pattern compared with urea [1]	percentages of residual corneodesmosin relative to the control [2] [%]	prodesquamating effect (corneodesmosin degradation) compared with urea ([2]; 5% in base Arlacel/Myrj)	acid protease activity compared with the control [3]	duration of the activating effect on acid proteases [3]	acid protease activity ([3]; 4M, regardless of the time studied)	degradation of a protein substrate by the acid proteases of the SC ([3]; concentration of 0.5 to 2M, in particular 1M)
NC(=O)NCCO [Hydrovance, N-(2-hydroxyethyl)urea]	distinguishable from urea by the appearance of low MW bands	23	slightly higher effect than urea	large increase in activity	long-lasting	marked decrease in activity	durably stimulates
NC(N)=O [urea]	–	30	–	slightly activating effect	up to two hours after the start of incubation	–	–
